Test results reported in article PMC6264179, “Triterpenoids from the Roots of Sanguisorba tenuifolia var. Alba” (Molecules, 2011).

Molecular target: α-Glucosidase (EC.3.2.1.20)
Test: α-Glucosidase inhibition assay (p-nitrophenyl-α-D-glucopyranoside substrate, absorbance at 405 nm)
Format: biochemical
Details: in vitro; pH 6.8 phosphate buffer, 37 °C, 15 min; acarbose positive control; read-out: IC50 (mM ± SEM, mM), α-glucosidase inhibitory activity
Procedure: Open column chromatography (CC) was carried out using silica gel (200-300 mesh, Qingdao Marine Chemical Co., Qingdao, China) or octadecyl silica gel (ODS, 25-40 μm, Fuji) as stationary phases. TLC employed precoated silica gel plates (5-7 μm, Qingdao Marine). Preparative HPLC was carried out on a Waters 600 instument equipped with a Waters UV-2487 detector. A Waters Sunfire prep C18 OBD (19 × 250 mm i.d.) column was used for this purpose. The IR spectra were recorded as KBr pellets on a Jasco 302-A spectrometer. Optical rotation was recorded on a Jasco P-2000 polarimeter. HRESIMS were measured on a FTMS-7 instrument (Bruker Daltonics). Melting points were determined on a Gallenkemp apparatus and are uncorrected. The ^1H-, ^13C- and 2D (^1H-^1H COSY, HSQC, HMBC, NOESY) NMR spectra were recorded on a Bruker AMX-400 spectrometer using standard pulse sequences. Chemical shifts are reported in ppm (δ), and scalar coupling are reported in Hz. GC analyses were carried out using a Fuli 9790 instrument equipped with a DM-5 column (0.25 μm, 30 m × 0.25 mm, Dikma, China). α-Glucosidase (EC.3.2.1.20) from Saccharomyces sp. was purchased from Wako Pure Chemical Indutries Ltd. (Wako 076-02841). Other reagents were purchased from various commercial sources.
α-Glucosidase (EC.3.2.1.20) enzyme inhibition assay has been performed according to the literature. α-Glucosidase (25 μL, 0.2 U/mL), various concentrations of samples (25 μL), and 67 mM phosphate buffer (pH 6.8, 175 μL) were mixed at room temperature for 10 min. Reactions were initiated by the addition of 23.2 mM p-nitrophenyl-α-D-glucopyranoside (25 μL). The reaction mixtures were incubated at 37 °C for 15 min in a final volume of 250 μL, and then 1 M Na2CO3 (50 μL) was added to the incubation solution to stop the reaction. The activities of glucosidase were detected in a 96-well plate, and the absorbance was read at 405 nm by a microplate spectrophotometer (Spectra Max, Molecular Devices, USA). The negative control was prepared by adding phosphate buffer instead of the sample in the same way as the test. […] The blank was prepared by adding phosphate buffer instead of α-glucosidase using the same method. The inhibition rates (%) were calculated from the following formula:
[(ODnegative control− ODblank) − (ODtest− ODtest blank)] / ([…]− ODblank) × 100%

| Structure (SMILES) | IC50 [mM] |
| --- | --- |
| CC1(C)C(=O)[C@H](O)C[C@@]2(C)C1CC[C@]1(C)C2CC=C2C3[C@@H](O)C(C)(C)CC[C@]3(C(=O)O[C@@H]3O[C@H](CO)[C@@H](O)[C@H](O)[C@H]3O)CC[C@]21C (stereo partly drawn) [Compound 6, 2α,19α-dihydroxy-3-oxo-olean-12-en-28-oic acid β-D-glucopyranosyl ester] | 2.01 ± 0.06 |
| CC1(C)CCC2(C(=O)OC3OC(CO)C(O)C(O)C3O)CCC3(C)C(=CCC4C5(C)CC(=O)C(O)C(C)(C)C5CCC43C)C2C1O [Compound 1, 2-oxo-3β,19α-dihydroxyolean-12-en-28-oic acid β-D-gluco-pyranosyl ester] | 1.88 ± 0.28 |
| C[C@@H]1CC[C@]2(C(=O)O)CC[C@]3(C)C(=CC[C@@H]4[C@@]5(C)CC[C@H](O)C(C)(C)[C@@H]5CC[C@]43C)[C@@H]2[C@]1(C)O [Compound 15, pomolic acid] | 1.84 ± 0.12 |
| C[C@@H]1CC[C@]2(C(=O)O[C@@H]3O[C@H](CO)[C@@H](O)[C@H](O)[C@H]3O)CC[C@]3(C)C(=CCC4[C@@]5(C)CC(=O)[C@H](O)C(C)(C)C5CC[C@]43C)C2[C@@]1(C)O (stereo partly drawn) [Compound 3, 2-oxopomolic acid β-D-glucopyranoside] | 2.22 ± 0.06 |
| CC1CCC2(C(=O)OC3OC(CO)C(O)C(O)C3O)CCC3(C)C(=CCC4C5(C)CCC(OC6OCC(O)C(O)C6O)C(C)(C)C5CCC43C)C2C1(C)O (centres unmarked) [Compound 13, ziyu-glycoside I] | 3.62 ± 0.21 |
| CC1(C)CC[C@]2(C(=O)O[C@@H]3O[C@H](CO)[C@@H](O)[C@H](O)[C@H]3O)CC[C@]3(C)C(=CCC4[C@@]5(C)C[C@@H](O)[C@H](O)C(C)(C)C5CC[C@]43C)C2[C@H]1O (some centres unmarked) [Compound 10, 24-deoxysericoside] | 3.52 ± 0.16 |
| C[C@@H]1CC[C@]2(C(=O)O)CC[C@]3(C)C(=CCC4[C@@]5(C)C[C@@H](O)C(=O)C(C)(C)C5CC[C@]43C)C2[C@@]1(C)O (stereo partly drawn) [Compound 5, 2α,19α-dihydroxy-3-oxo-12-ursen-28-oic acid] | 1.23 ± 0.09 |
| C=C1C(C)CCC2(C(=O)OC3OC(CO)C(O)C(O)C3O)CCC3(C)C(=CCC4C5(C)CCC(OC6OCC(O)C(O)C6O)C(C)(C)C5CCC43C)C12 [Compound 14, 3β-[(α-L-arabinopyranosyl)oxy] urs-12,19(29)-dien-28-oic acid 28-β-D-glucopyranosyl ester] | 2.87 ± 0.06 |
| C[C@@H]1CC[C@]2(C(=O)O)CC[C@]3(C)C(=CC[C@@H]4[C@@]5(C)C[C@@H](O)[C@@H](O)C(C)(C)[C@@H]5CC[C@]43C)[C@@H]2[C@]1(C)O [Compound 8, euscaphic acid] | 0.67 ± 0.09 |
| CC1CCC2(C(=O)OC3OC(CO)C(O)C(O)C3O)CCC3(C)C(=CCC4C5(C)CC(O)C(=O)C(C)(C)C5CCC43C)C2C1(C)O [Compound 4, 2α,19α-dihydroxy-3-oxo-12-ursen-28-oic acid β-D-glucopyranosyl ester] | 1.56 ± 0.04 |
| C[C@@H]1CC[C@]2(C(=O)O[C@@H]3O[C@H](CO)[C@@H](O)[C@H](O)[C@H]3O)CC[C@]3(C)C(=CCC4[C@@]5(C)C[C@@H](O)[C@@H](O)C(C)(C)C5CC[C@]43C)C2[C@@]1(C)O (some centres unmarked) [Compound 9, kaji-ichigoside Fl] | 3.1 ± 0.24 |
| C[C@@H]1CC[C@]2(C(=O)O)CC[C@]3(C)C(=CCC4[C@@]5(C)CC(=O)[C@H](O)C(C)(C)C5CC[C@]43C)C2[C@@]1(C)O (some centres unmarked) [Compound 2, 2-oxopomolic acid] | 1.35 ± 0.04 |
| C[C@@H]1CC[C@]2(C(=O)O[C@@H]3O[C@H](CO)[C@@H](O)[C@H](O)[C@H]3O)CC[C@]3(C)C(=CCC4[C@@]5(C)C[C@@H](O)[C@H](O)C(C)(C)C5CC[C@]43C)C2[C@@]1(C)O (some centres unmarked) [Compound 7, rosamutin] | 3.28 ± 0.08 |
| C[C@@H]1CC[C@]2(C(=O)O)CC[C@]3(C)C(=CCC4[C@@]5(C)CC[C@H](OC(=O)C=Cc6ccc(O)cc6)C(C)(C)C5CC[C@]43C)C2[C@@H]1C (some centres unmarked) [Compound 12, p-coumaroylursolic acid] | 0.62 ± 0.06 |
